Source: ChEMBL document CHEMBL1146354, “Synthesis, cytotoxicity, and DNA topoisomerase II inhibitory activity of benzofuroquinolinediones” (Bioorg Med Chem, 2007)

Tested on: HCT-116
Assay: Cytotoxicity against human HCT116 cells by SRB assay
Assay type: functional, cell-based

SMILES | IC50 [nM]
CC(CN(C)C)Oc1ccc2c3c(oc2c1)C(=O)c1ccccc1C3=O (stereo not given) | 270
CC(CN(C)C)Oc1ccc2c3c(oc2c1)C(=O)c1ncccc1C3=O (stereo not given) | 80
CC(C)N(CCOc1ccc2c3c(oc2c1)C(=O)c1ccccc1C3=O)C(C)C | 1390
CC(COc1cc2oc3c(c2cc1Cl)C(=O)c1ccccc1C3=O)N(C)C (stereo not given) | 340
COc1cccc2c1C(=O)c1c(O)c3c(c(O)c1C2=O)C[C@@](O)(C(=O)CO)C[C@@H]3O[C@H]1C[C@H](N)[C@H](O)[C@H](C)O1 [DOXORUBICIN] | 620
COc1cc([C@@H]2c3cc4c(cc3[C@@H](O[C@@H]3O[C@@H]5CO[C@@H](C)O[C@H]5[C@H](O)[C@H]3O)[C@H]3COC(=O)[C@H]23)OCO4)cc(OC)c1O [ETOPOSIDE] | 1870
CC(C)N(CCOc1ccc2c3c(oc2c1)C(=O)c1ncccc1C3=O)C(C)C | 180
CC(C)N(CCOc1cc2oc3c(c2cc1Cl)C(=O)c1ccccc1C3=O)C(C)C | > 20000
CC(COc1cc2oc3c(c2cc1Cl)C(=O)c1cccnc1C3=O)N(C)C (stereo not given) | 140

Target: not listed separately
Assay: Inhibition of human topoisomerase 2 […]

SMILES | IC50 [nM]
COc1cccc2c1C(=O)c1c(O)c3c(c(O)c1C2=O)C[C@@](O)(C(=O)CO)C[C@@H]3O[C@H]1C[C@H](N)[C@H](O)[C@H](C)O1 [DOXORUBICIN] | 2670
COc1cc([C@@H]2c3cc4c(cc3[C@@H](O[C@@H]3O[C@@H]5CO[C@@H](C)O[C@H]5[C@H](O)[C@H]3O)[C@H]3COC(=O)[C@H]23)OCO4)cc(OC)c1O [ETOPOSIDE] | 78400

Tested on: SK-MEL-2
Assay: Cytotoxicity against human SK-MEL-2 cells by SRB assay
Assay type: functional, cell-based

SMILES | IC50 [nM]
CC(CN(C)C)Oc1ccc2c3c(oc2c1)C(=O)c1ccccc1C3=O (stereo not given) | 1520
CC(CN(C)C)Oc1ccc2c3c(oc2c1)C(=O)c1ncccc1C3=O (stereo not given) | 150
CC(C)N(CCOc1ccc2c3c(oc2c1)C(=O)c1ccccc1C3=O)C(C)C | 1530
CC(COc1cc2oc3c(c2cc1Cl)C(=O)c1ccccc1C3=O)N(C)C (stereo not given) | 500
COc1cccc2c1C(=O)c1c(O)c3c(c(O)c1C2=O)C[C@@](O)(C(=O)CO)C[C@@H]3O[C@H]1C[C@H](N)[C@H](O)[C@H](C)O1 [DOXORUBICIN] | 70
CC(C)N(CCOc1ccc2c3c(oc2c1)C(=O)c1ncccc1C3=O)C(C)C | 940
CC(C)N(CCOc1cc2oc3c(c2cc1Cl)C(=O)c1ccccc1C3=O)C(C)C | > 20000
CC(COc1cc2oc3c(c2cc1Cl)C(=O)c1cccnc1C3=O)N(C)C (stereo not given) | 140

Tested on: SNU-638
Assay: Cytotoxicity against human SNU638 cells by SRB assay
Assay type: functional, cell-based

SMILES | IC50 [nM]
CC(CN(C)C)Oc1ccc2c3c(oc2c1)C(=O)c1ccccc1C3=O (stereo not given) | 880
CC(CN(C)C)Oc1ccc2c3c(oc2c1)C(=O)c1ncccc1C3=O (stereo not given) | 140
CC(C)N(CCOc1ccc2c3c(oc2c1)C(=O)c1ccccc1C3=O)C(C)C | 2570
CC(COc1cc2oc3c(c2cc1Cl)C(=O)c1ccccc1C3=O)N(C)C (stereo not given) | 1140
COc1cccc2c1C(=O)c1c(O)c3c(c(O)c1C2=O)C[C@@](O)(C(=O)CO)C[C@@H]3O[C@H]1C[C@H](N)[C@H](O)[C@H](C)O1 [DOXORUBICIN] | 60
CC(C)N(CCOc1ccc2c3c(oc2c1)C(=O)c1ncccc1C3=O)C(C)C | 450
CC(C)N(CCOc1cc2oc3c(c2cc1Cl)C(=O)c1ccccc1C3=O)C(C)C | > 20000
CC(COc1cc2oc3c(c2cc1Cl)C(=O)c1cccnc1C3=O)N(C)C (stereo not given) | 180

Target: T1, DNA topoisomerase 1 (Homo sapiens) (UniProt P11387)
T1 sequence (whole entry): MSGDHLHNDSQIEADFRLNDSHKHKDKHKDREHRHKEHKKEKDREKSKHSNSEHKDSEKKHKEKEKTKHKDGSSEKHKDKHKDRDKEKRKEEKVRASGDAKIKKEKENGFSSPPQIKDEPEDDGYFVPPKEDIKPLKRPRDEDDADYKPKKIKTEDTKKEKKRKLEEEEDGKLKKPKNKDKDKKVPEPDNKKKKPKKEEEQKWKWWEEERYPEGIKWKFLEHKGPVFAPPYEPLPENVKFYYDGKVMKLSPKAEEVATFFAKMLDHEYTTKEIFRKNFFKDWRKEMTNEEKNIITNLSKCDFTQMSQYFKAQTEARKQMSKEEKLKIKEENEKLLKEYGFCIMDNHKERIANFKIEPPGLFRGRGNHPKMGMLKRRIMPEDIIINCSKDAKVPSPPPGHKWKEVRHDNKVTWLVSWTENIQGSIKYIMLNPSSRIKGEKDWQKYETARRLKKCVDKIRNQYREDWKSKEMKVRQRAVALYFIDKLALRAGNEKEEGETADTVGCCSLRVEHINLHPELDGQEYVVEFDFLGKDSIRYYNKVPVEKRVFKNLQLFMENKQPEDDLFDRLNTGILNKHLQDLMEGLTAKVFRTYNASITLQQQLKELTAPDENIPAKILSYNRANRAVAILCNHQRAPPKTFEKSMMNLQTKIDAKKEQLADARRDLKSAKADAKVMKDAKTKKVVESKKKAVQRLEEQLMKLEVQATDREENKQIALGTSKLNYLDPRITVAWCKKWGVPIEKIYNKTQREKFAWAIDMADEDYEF
Assay: Inhibition of human topoisomerase 1-mediated DNA relaxation activity at 5 uM after 10 mins relative to control

SMILES | inhibition [%]
CC(CN(C)C)Oc1ccc2c3c(oc2c1)C(=O)c1ccccc1C3=O (stereo not given) | 12
CC(CN(C)C)Oc1ccc2c3c(oc2c1)C(=O)c1ncccc1C3=O (stereo not given) | 0
CC(C)N(CCOc1ccc2c3c(oc2c1)C(=O)c1ccccc1C3=O)C(C)C | 10
CC(COc1cc2oc3c(c2cc1Cl)C(=O)c1ccccc1C3=O)N(C)C (stereo not given) | 0
CC(C)N(CCOc1ccc2c3c(oc2c1)C(=O)c1ncccc1C3=O)C(C)C | 0
CC(C)N(CCOc1cc2oc3c(c2cc1Cl)C(=O)c1ccccc1C3=O)C(C)C | 14
CC(COc1cc2oc3c(c2cc1Cl)C(=O)c1cccnc1C3=O)N(C)C (stereo not given) | 0

Tested on: A549
Assay: Cytotoxicity against human A549 cells by SRB assay
Assay type: functional, cell-based

SMILES | IC50 [nM]
CC(CN(C)C)Oc1ccc2c3c(oc2c1)C(=O)c1ccccc1C3=O (stereo not given) | 370
CC(CN(C)C)Oc1ccc2c3c(oc2c1)C(=O)c1ncccc1C3=O (stereo not given) | 60
CC(C)N(CCOc1ccc2c3c(oc2c1)C(=O)c1ccccc1C3=O)C(C)C | 2010
CC(COc1cc2oc3c(c2cc1Cl)C(=O)c1ccccc1C3=O)N(C)C (stereo not given) | 450
COc1cccc2c1C(=O)c1c(O)c3c(c(O)c1C2=O)C[C@@](O)(C(=O)CO)C[C@@H]3O[C@H]1C[C@H](N)[C@H](O)[C@H](C)O1 [DOXORUBICIN] | 150
CC(C)N(CCOc1ccc2c3c(oc2c1)C(=O)c1ncccc1C3=O)C(C)C | 370
CC(C)N(CCOc1cc2oc3c(c2cc1Cl)C(=O)c1ccccc1C3=O)C(C)C | > 20000
CC(COc1cc2oc3c(c2cc1Cl)C(=O)c1cccnc1C3=O)N(C)C (stereo not given) | 90

Target: T2, DNA topoisomerase 1 (Homo sapiens, UniProt P11387)
T2 sequence (P11387 whole entry): T1 sequence (whole entry)
Assay: Inhibition of human topoisomerase 1 […]

SMILES | IC50 [nM]
CC(CN(C)C)Oc1ccc2c3c(oc2c1)C(=O)c1ccccc1C3=O (stereo not given) | 59500

Species on record: Homo sapiens
Assay: Inhibition of human topoisomerase 2-mediated KDNA decatenation activity at 5 uM after 10 mins relative to control

SMILES | inhibition [%]
CC(CN(C)C)Oc1ccc2c3c(oc2c1)C(=O)c1ccccc1C3=O (stereo not given) | 84
CC(CN(C)C)Oc1ccc2c3c(oc2c1)C(=O)c1ncccc1C3=O (stereo not given) | 24
CC(C)N(CCOc1ccc2c3c(oc2c1)C(=O)c1ccccc1C3=O)C(C)C | 36
CC(COc1cc2oc3c(c2cc1Cl)C(=O)c1ccccc1C3=O)N(C)C (stereo not given) | 68
COc1cccc2c1C(=O)c1c(O)c3c(c(O)c1C2=O)C[C@@](O)(C(=O)CO)C[C@@H]3O[C@H]1C[C@H](N)[C@H](O)[C@H](C)O1 [DOXORUBICIN] | 78
CC(C)N(CCOc1ccc2c3c(oc2c1)C(=O)c1ncccc1C3=O)C(C)C | 71
CC(C)N(CCOc1cc2oc3c(c2cc1Cl)C(=O)c1ccccc1C3=O)C(C)C | 59
CC(COc1cc2oc3c(c2cc1Cl)C(=O)c1cccnc1C3=O)N(C)C (stereo not given) | 59

Species on record: Homo sapiens
Assay: Inhibition of human topoisomerase 2-mediated KDNA decatenation activity at 200 uM after 10 mins relative to control

SMILES | inhibition [%]
COc1cc([C@@H]2c3cc4c(cc3[C@@H](O[C@@H]3O[C@@H]5CO[C@@H](C)O[C@H]5[C@H](O)[C@H]3O)[C@H]3COC(=O)[C@H]23)OCO4)cc(OC)c1O [ETOPOSIDE] | 89

Tested on: HT-1080
Assay: Cytotoxicity against human HT1080 cells by SRB assay
Assay type: functional, cell-based

SMILES | IC50 [nM]
CC(CN(C)C)Oc1ccc2c3c(oc2c1)C(=O)c1ccccc1C3=O (stereo not given) | 270
CC(CN(C)C)Oc1ccc2c3c(oc2c1)C(=O)c1ncccc1C3=O (stereo not given) | 170
CC(C)N(CCOc1ccc2c3c(oc2c1)C(=O)c1ccccc1C3=O)C(C)C | 1020
CC(COc1cc2oc3c(c2cc1Cl)C(=O)c1ccccc1C3=O)N(C)C (stereo not given) | 650
COc1cccc2c1C(=O)c1c(O)c3c(c(O)c1C2=O)C[C@@](O)(C(=O)CO)C[C@@H]3O[C@H]1C[C@H](N)[C@H](O)[C@H](C)O1 [DOXORUBICIN] | 60
CC(C)N(CCOc1ccc2c3c(oc2c1)C(=O)c1ncccc1C3=O)C(C)C | 180
CC(C)N(CCOc1cc2oc3c(c2cc1Cl)C(=O)c1ccccc1C3=O)C(C)C | > 20000
CC(COc1cc2oc3c(c2cc1Cl)C(=O)c1cccnc1C3=O)N(C)C (stereo not given) | 110

Tested on: SK-OV-3
Assay: Cytotoxicity against human SK-OV-3 cells by SRB assay
Assay type: functional, cell-based

SMILES | IC50 [nM]
CC(CN(C)C)Oc1ccc2c3c(oc2c1)C(=O)c1ccccc1C3=O (stereo not given) | 2260
CC(CN(C)C)Oc1ccc2c3c(oc2c1)C(=O)c1ncccc1C3=O (stereo not given) | 150
CC(C)N(CCOc1ccc2c3c(oc2c1)C(=O)c1ccccc1C3=O)C(C)C | 3550
CC(COc1cc2oc3c(c2cc1Cl)C(=O)c1ccccc1C3=O)N(C)C (stereo not given) | 650
COc1cccc2c1C(=O)c1c(O)c3c(c(O)c1C2=O)C[C@@](O)(C(=O)CO)C[C@@H]3O[C@H]1C[C@H](N)[C@H](O)[C@H](C)O1 [DOXORUBICIN] | 290
CC(C)N(CCOc1ccc2c3c(oc2c1)C(=O)c1ncccc1C3=O)C(C)C | 1020
CC(C)N(CCOc1cc2oc3c(c2cc1Cl)C(=O)c1ccccc1C3=O)C(C)C | > 20000
CC(COc1cc2oc3c(c2cc1Cl)C(=O)c1cccnc1C3=O)N(C)C (stereo not given) | 150

Tested on: XF498
Assay: Cytotoxicity against human XF498 cells by SRB assay
Assay type: functional, cell-based

SMILES | IC50 [nM]
CC(CN(C)C)Oc1ccc2c3c(oc2c1)C(=O)c1ccccc1C3=O (stereo not given) | 1750
CC(CN(C)C)Oc1ccc2c3c(oc2c1)C(=O)c1ncccc1C3=O (stereo not given) | 120
CC(C)N(CCOc1ccc2c3c(oc2c1)C(=O)c1ccccc1C3=O)C(C)C | 3170
CC(COc1cc2oc3c(c2cc1Cl)C(=O)c1ccccc1C3=O)N(C)C (stereo not given) | 550
COc1cccc2c1C(=O)c1c(O)c3c(c(O)c1C2=O)C[C@@](O)(C(=O)CO)C[C@@H]3O[C@H]1C[C@H](N)[C@H](O)[C@H](C)O1 [DOXORUBICIN] | 40
CC(C)N(CCOc1ccc2c3c(oc2c1)C(=O)c1ncccc1C3=O)C(C)C | 940
CC(C)N(CCOc1cc2oc3c(c2cc1Cl)C(=O)c1ccccc1C3=O)C(C)C | > 20000
CC(COc1cc2oc3c(c2cc1Cl)C(=O)c1cccnc1C3=O)N(C)C (stereo not given) | 140

Tested on: HL-60
Assay: Cytotoxicity against human HL60 cells by SRB assay
Assay type: functional, cell-based

SMILES | IC50 [nM]
CC(CN(C)C)Oc1ccc2c3c(oc2c1)C(=O)c1ccccc1C3=O (stereo not given) | 250
CC(CN(C)C)Oc1ccc2c3c(oc2c1)C(=O)c1ncccc1C3=O (stereo not given) | 90
CC(C)N(CCOc1ccc2c3c(oc2c1)C(=O)c1ccccc1C3=O)C(C)C | 1110
CC(COc1cc2oc3c(c2cc1Cl)C(=O)c1ccccc1C3=O)N(C)C (stereo not given) | 630
COc1cccc2c1C(=O)c1c(O)c3c(c(O)c1C2=O)C[C@@](O)(C(=O)CO)C[C@@H]3O[C@H]1C[C@H](N)[C@H](O)[C@H](C)O1 [DOXORUBICIN] | 40
COc1cc([C@@H]2c3cc4c(cc3[C@@H](O[C@@H]3O[C@@H]5CO[C@@H](C)O[C@H]5[C@H](O)[C@H]3O)[C@H]3COC(=O)[C@H]23)OCO4)cc(OC)c1O [ETOPOSIDE] | 370
CC(C)N(CCOc1ccc2c3c(oc2c1)C(=O)c1ncccc1C3=O)C(C)C | 80
CC(C)N(CCOc1cc2oc3c(c2cc1Cl)C(=O)c1ccccc1C3=O)C(C)C | > 20000
CC(COc1cc2oc3c(c2cc1Cl)C(=O)c1cccnc1C3=O)N(C)C (stereo not given) | 220
